# Measured values taken from the supplement of paper PMC10307832.
# Key:
# Experiment in all cases: relative viability (nuclei count vs DMSO), 5 days (fraction); higher = more cells survive
# OSI-027 + AZD7762 = compound: COc1cccc2cc(-c3nc([C@H]4CC[C@H](C(=O)O)CC4)n4ncnc(N)c34)[nH]c12 [OSI-027] + NC(=O)Nc1cc(-c2cccc(F)c2)sc1C(=O)N[C@H]1CCCNC1 [AZD7762] (partner 0.2 µM)
# Method in brief: (§1)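 Relative viability divides the nuclei count in treated wells by that in vehicle wells. Lung cancer cell lines were seeded in 1536-well plates, dosed by pin tool the next day, and fixed and stained after 5 days in one step with final 0.05% Triton X-100, 1% formaldehyde and 1 ug/ml Hoechst. Dosing was a single drug or a fixed anchor-drug dose plus five library-drug doses (not always all listed) in √10 steps, and values are medians of duplicate plates imaged at 4×.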
# [1] = compound: CCCS(=O)(=O)Nc1ccc(F)c(C(=O)c2c[nH]c3ncc(-c4ccc(Cl)cc4)cc23)c1F [Vemurafenib] + CC(=O)c1c(C)c2cnc(Nc3ccc(N4CCNCC4)cn3)nc2n(C2CCCC2)c1=O [Palbociclib] (partner 0.5 µM)
# Method in brief: as §1
# Vemurafenib + Luminespib = compound: CCCS(=O)(=O)Nc1ccc(F)c(C(=O)c2c[nH]c3ncc(-c4ccc(Cl)cc4)cc23)c1F [Vemurafenib] + CCNC(=O)c1noc(-c2cc(C(C)C)c(O)cc2O)c1-c1ccc(CN2CCOCC2)cc1 [Luminespib] (partner 0.01 µM)
# Method in brief: as §1
# OSI-027 + Alpelisib = compound: COc1cccc2cc(-c3nc([C@H]4CC[C@H](C(=O)O)CC4)n4ncnc(N)c34)[nH]c12 [OSI-027] + Cc1nc(NC(=O)N2CCC[C@H]2C(N)=O)sc1-c1ccnc(C(C)(C)C(F)(F)F)c1 [Alpelisib] (partner 2 µM)
# Method in brief: as §1
Cell Line,relative viability (OSI-027 + AZD7762; first compound 0.01 µM),relative viability (OSI-027 + AZD7762; first compound 0.03162 µM),relative viability (OSI-027 + AZD7762; first compound 0.1 µM),relative viability (OSI-027 + AZD7762; first compound 0.3162 µM),relative viability (OSI-027 + AZD7762; first compound 1 µM),relative viability ([1]; first compound 0.03162 µM),relative viability ([1]; first compound 0.3162 µM),relative viability ([1]; first compound 1 µM),relative viability (Vemurafenib + Luminespib; first compound 0.03162 µM),relative viability (Vemurafenib + Luminespib; first compound 1 µM),relative viability (OSI-027 + Alpelisib; first compound 0.01 µM),relative viability (OSI-027 + Alpelisib; first compound 0.03162 µM),relative viability (OSI-027 + Alpelisib; first compound 0.1 µM),relative viability (OSI-027 + Alpelisib; first compound 0.3162 µM),relative viability (OSI-027 + Alpelisib; first compound 1 µM),relative viability (Vemurafenib + Luminespib; first compound 0.3162 µM),relative viability ([1]; first compound 0.1 µM),relative viability (Vemurafenib + Luminespib; first compound 0.1 µM)
NCI-H322M,0.621,0.61,0.481,0.427,0.419,0.444,0.557,0.475,0.861,0.825,0.0629,0.772,0.775,0.539,0.521,,,
HCC-827,0.194,0.201,0.195,0.205,0.214,0.413,0.509,0.511,0.654,0.669,0.871,1.03,0.921,0.736,0.281,0.537,,
LU99A,0.462,0.321,0.28,0.133,0.171,0.386,,0.373,0.224,0.288,0.486,0.455,0.312,0.193,0.204,0.259,0.401,0.282
LK-2,0.538,,0.277,0.16,0.112,0.621,0.602,0.311,0.19,0.181,1.18,0.835,0.84,0.321,0.165,0.131,0.599,0.188
EMC-BAC-2,1.05,1.14,0.833,0.791,0.63,0.491,0.407,0.468,1.08,1.22,0.723,0.727,0.647,0.558,0.309,1.19,0.416,1.03
NCI-H460,0.731,0.668,0.473,0.548,0.336,0.146,0.108,0.203,0.0379,0.0293,0.541,0.404,0.314,0.168,0.119,0.0345,0.152,0.0333
NCI-H441,1.35,1.07,1.24,0.934,0.499,0.23,0.241,0.237,0.373,0.316,0.716,0.718,0.686,0.636,0.273,0.392,0.185,0.245
NCI-H727,0.557,0.568,0.41,0.576,0.546,0.699,0.811,0.661,0.309,0.353,0.567,0.63,0.491,0.419,0.378,0.313,0.631,
NCI-H1651,0.471,0.415,0.425,0.465,0.417,0.511,0.488,0.53,0.91,0.84,1.1,,0.882,0.713,0.559,0.946,0.463,1.05
NCI-H1355,0.703,0.88,0.753,0.628,0.38,0.384,0.436,0.45,0.664,0.672,0.764,0.723,0.677,0.345,0.24,0.696,0.325,0.662
NCI-H1793,0.409,0.435,0.399,0.36,0.239,0.287,0.303,0.344,0.16,0.166,0.831,0.589,0.466,0.307,0.189,0.173,0.226,
NCI-H1666,0.837,0.707,0.763,0.766,0.585,0.579,0.665,0.641,0.933,0.966,0.869,1.02,0.658,0.43,0.488,1.02,0.699,0.877
NCI-H838,0.923,0.838,0.855,0.806,0.801,0.213,0.177,0.343,0.291,0.352,0.996,0.847,0.632,0.498,0.275,,0.236,0.349
NCI-H1975,0.708,0.697,0.545,0.609,0.591,0.553,0.41,0.382,0.295,0.287,0.659,0.667,0.455,0.38,0.355,,0.471,0.219
A-427,0.676,0.52,0.557,0.541,0.399,0.525,,0.553,0.846,0.87,1.04,1.08,0.961,0.82,0.429,0.627,0.481,0.919
PC-3 [JPC-3],0.778,0.703,0.521,0.42,0.505,,0.485,0.565,0.671,0.782,1.06,1.03,0.986,0.802,0.43,0.724,,
LXF-289,1.06,1.02,1.23,1.15,0.959,0.548,0.601,0.667,0.647,0.689,1.05,1.05,0.991,0.909,0.496,0.661,0.526,0.584
LOU-NH91,0.762,0.702,0.667,0.597,0.482,0.515,0.536,0.551,0.301,0.412,0.692,0.689,0.616,0.558,0.47,,0.497,
PC-14,0.369,0.314,0.302,0.35,0.22,0.449,0.504,0.537,0.234,0.148,0.855,0.641,1.01,1.03,0.65,0.18,,
